This is an account of results in article PMC12090182, “Repurposing of the RIPK1-Selective Benzo[1,4]oxazepin-4-one Scaffold for the Development of a Type III LIMK1/2 Inhibitor” (ACS Chemical Biology, 2025).

Where two headings read alike, the source gives them in different places.

The EC50 is the concentration that produces a half-maximal response.

Assay [1] concerns the target T1, LRRK2 (Homo sapiens, UniProt Q5S007). Description: scanMAX KINOMEscan (Eurofins). It is filed as binding.
The target of assay [2] is KIT(L576P) (Homo sapiens, UniProt P10721, L576P). The assay can be described thus: biochemical. It is filed as binding. The conditions noted are these: 1000 nM, read-out: Percent Control.
Assay [3] has as its target ABL1(Q252H)-phosphorylated (Homo sapiens, UniProt P00519, Q252H). Description: biochemical. It is filed as binding. As to conditions: read-out: Percent Control.
In assay [4] the test system is FLT3(ITD,F691L). It is filed as binding. As to conditions: 1000 nM.
In assay [5] the target is FLT3(N841I) (Homo sapiens, UniProt P36888, N841I). Description: biochemical. The conditions noted are these: 1000 nM, read-out: Percent Control. It is filed as binding.
For assay [6], the target named is EGFR(L861Q) (Homo sapiens, UniProt P00533, L861Q). Description: biochemical. It is filed as binding. The conditions noted are these: 1000 nM, read-out: Percent Control.
Assay [7] deals with KIT(V559D,V654A) (Homo sapiens, UniProt P10721, V559D/V654A). The assay can be described thus: biochemical. As to conditions: read-out: Percent Control. It is filed as binding.
Assay [8] deals with PIK3CA(Q546K) (Homo sapiens, UniProt P42336, Q546K). The assay can be described thus: biochemical. The conditions noted are these: read-out: Percent Control. In kind it is binding.
Assay [9] deals with T2, BTK (Homo sapiens, UniProt Q06187).
T2 construct: full-length LIMK1/2, RIPK1, BTK, and LRRK2 cloned in a frame in a NanoLuc-vector (Promega); host or cells: HEK293T
Description: NanoBRET cellular target engagement. It is filed as cell-based. The conditions noted are these: HEK293T cells, read-out: EC50 (NanoBRET), Figure 4C. As to the method:
(§1) The assay was performed as described previously.[31],[32] In brief, full-length LIMK1/2, RIPK1, BTK, and LRRK2 cloned in a frame in a NanoLuc-vector (Promega) were transfected into HEK293T cells (ATCC CRL-1573) using FuGENE HD (Promega, E2312), and proteins were allowed to express for 20 h. The serially diluted inhibitor and NanoBRET Kinase Tracer (Promega) used at the previously determined Tracer KD,app (Table S1) were pipetted into white 384-well plates (Greiner 781 207) using an ECHO 550 acoustic dispenser (Labcyte). The corresponding transfected cells were added and reseeded at a density of 2 × 10^5 cells/mL after trypsinization and resuspension in Opti-MEM without phenol red (Life Technologies). The system was allowed to equilibrate for 2 h at 37 °C and 5% CO2 prior to BRET measurements. To measure BRET, a NanoBRET Nano-Glo substrate and an extracellular NanoLuc inhibitor (Promega, N2160) were added as per the manufacturer's protocol, and filtered luminescence was measured on a PHERAstar plate reader (BMG Labtech) equipped with a luminescence filter pair (a 450 nm BP filter (donor) and a 610 nm LP filter (acceptor)). Competitive displacement data were then plotted using GraphPad Prism 10 software using a normalized three-parameter curve fit with the following equation: Y = 100/( [drawing 1] ).
A general note: BRET reads energy transfer from a luciferase to a nearby fluorophore.

The target in assay [10] is T1, LRRK2. Description: NanoBRET cellular target engagement. In kind it is cell-based. As to conditions: LRRK2, HEK293T cells; read-out: EC50 (NanoBRET), Figure 4C. On the procedure:
as §1

Assay [11] deals with WNK2 (Homo sapiens, UniProt Q9Y3S1). The assay can be described thus: scanMAX KINOMEscan (Eurofins). It is filed as binding.
Assay [12] has as its target ABL1(E255K)-phosphorylated (Homo sapiens, UniProt P00519, E255K). Description: biochemical. It is filed as binding. The conditions noted are these: read-out: Percent Control.
Assay [13] has as its target ALK(C1156Y) (Homo sapiens, UniProt Q9UM73, C1156Y). The assay can be described thus: biochemical. It is filed as binding. The conditions noted are these: 1000 nM, read-out: Percent Control.
The target in assay [14] is MET(M1250T) (Homo sapiens, UniProt P08581, M1250T). The assay can be described thus: biochemical. It is filed as binding. As to conditions: 1000 nM, read-out: Percent Control.
In assay [15] the target is JAK2 (V617F) (Homo sapiens, UniProt O60674, V617F). Description: cell-based. The conditions noted are these: HEK-293T; 1 μM inhibitor, HEK293T cells.
Assay [16] has as its target ABL1(F317L)-nonphosphorylated (Homo sapiens, UniProt P00519, F317L). Description: biochemical. It is filed as binding. As to conditions: read-out: Percent Control.
In assay [17] the target is EGFR(T790M) (Homo sapiens, UniProt P00533, T790M). The assay can be described thus: biochemical. The conditions noted are these: compound concentration 100 nM; Entrez EGFR; read-out: Percent Control. In kind it is binding.
For assay [18], the target named is T3, RIPK1 (Homo sapiens, UniProt Q13546).
T3 construct: full-length LIMK1/2, RIPK1, BTK, and LRRK2 cloned in a frame in a NanoLuc-vector (Promega); host or cells: HEK293T
T3 sequence (Q13546 1-671): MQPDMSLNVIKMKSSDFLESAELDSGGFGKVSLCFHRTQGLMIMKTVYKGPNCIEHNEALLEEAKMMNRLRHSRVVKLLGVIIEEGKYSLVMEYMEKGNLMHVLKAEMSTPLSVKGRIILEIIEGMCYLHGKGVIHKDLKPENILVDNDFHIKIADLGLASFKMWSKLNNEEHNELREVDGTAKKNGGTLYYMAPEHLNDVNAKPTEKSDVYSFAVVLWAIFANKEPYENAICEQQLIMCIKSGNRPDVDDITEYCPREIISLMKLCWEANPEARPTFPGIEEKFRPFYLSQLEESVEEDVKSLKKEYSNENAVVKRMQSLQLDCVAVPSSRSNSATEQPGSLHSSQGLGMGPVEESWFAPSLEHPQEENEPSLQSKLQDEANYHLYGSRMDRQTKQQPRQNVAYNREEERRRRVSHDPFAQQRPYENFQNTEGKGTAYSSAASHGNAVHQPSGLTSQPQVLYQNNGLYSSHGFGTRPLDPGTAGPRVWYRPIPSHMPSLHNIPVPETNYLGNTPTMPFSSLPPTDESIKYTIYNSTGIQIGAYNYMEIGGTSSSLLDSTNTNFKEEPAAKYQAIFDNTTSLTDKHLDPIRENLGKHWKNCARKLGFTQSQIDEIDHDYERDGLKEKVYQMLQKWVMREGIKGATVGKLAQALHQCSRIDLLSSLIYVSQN
Description: scanMAX KINOMEscan (Eurofins). In kind it is binding.

Sequence of WNK2 (Q9Y3S1 whole entry): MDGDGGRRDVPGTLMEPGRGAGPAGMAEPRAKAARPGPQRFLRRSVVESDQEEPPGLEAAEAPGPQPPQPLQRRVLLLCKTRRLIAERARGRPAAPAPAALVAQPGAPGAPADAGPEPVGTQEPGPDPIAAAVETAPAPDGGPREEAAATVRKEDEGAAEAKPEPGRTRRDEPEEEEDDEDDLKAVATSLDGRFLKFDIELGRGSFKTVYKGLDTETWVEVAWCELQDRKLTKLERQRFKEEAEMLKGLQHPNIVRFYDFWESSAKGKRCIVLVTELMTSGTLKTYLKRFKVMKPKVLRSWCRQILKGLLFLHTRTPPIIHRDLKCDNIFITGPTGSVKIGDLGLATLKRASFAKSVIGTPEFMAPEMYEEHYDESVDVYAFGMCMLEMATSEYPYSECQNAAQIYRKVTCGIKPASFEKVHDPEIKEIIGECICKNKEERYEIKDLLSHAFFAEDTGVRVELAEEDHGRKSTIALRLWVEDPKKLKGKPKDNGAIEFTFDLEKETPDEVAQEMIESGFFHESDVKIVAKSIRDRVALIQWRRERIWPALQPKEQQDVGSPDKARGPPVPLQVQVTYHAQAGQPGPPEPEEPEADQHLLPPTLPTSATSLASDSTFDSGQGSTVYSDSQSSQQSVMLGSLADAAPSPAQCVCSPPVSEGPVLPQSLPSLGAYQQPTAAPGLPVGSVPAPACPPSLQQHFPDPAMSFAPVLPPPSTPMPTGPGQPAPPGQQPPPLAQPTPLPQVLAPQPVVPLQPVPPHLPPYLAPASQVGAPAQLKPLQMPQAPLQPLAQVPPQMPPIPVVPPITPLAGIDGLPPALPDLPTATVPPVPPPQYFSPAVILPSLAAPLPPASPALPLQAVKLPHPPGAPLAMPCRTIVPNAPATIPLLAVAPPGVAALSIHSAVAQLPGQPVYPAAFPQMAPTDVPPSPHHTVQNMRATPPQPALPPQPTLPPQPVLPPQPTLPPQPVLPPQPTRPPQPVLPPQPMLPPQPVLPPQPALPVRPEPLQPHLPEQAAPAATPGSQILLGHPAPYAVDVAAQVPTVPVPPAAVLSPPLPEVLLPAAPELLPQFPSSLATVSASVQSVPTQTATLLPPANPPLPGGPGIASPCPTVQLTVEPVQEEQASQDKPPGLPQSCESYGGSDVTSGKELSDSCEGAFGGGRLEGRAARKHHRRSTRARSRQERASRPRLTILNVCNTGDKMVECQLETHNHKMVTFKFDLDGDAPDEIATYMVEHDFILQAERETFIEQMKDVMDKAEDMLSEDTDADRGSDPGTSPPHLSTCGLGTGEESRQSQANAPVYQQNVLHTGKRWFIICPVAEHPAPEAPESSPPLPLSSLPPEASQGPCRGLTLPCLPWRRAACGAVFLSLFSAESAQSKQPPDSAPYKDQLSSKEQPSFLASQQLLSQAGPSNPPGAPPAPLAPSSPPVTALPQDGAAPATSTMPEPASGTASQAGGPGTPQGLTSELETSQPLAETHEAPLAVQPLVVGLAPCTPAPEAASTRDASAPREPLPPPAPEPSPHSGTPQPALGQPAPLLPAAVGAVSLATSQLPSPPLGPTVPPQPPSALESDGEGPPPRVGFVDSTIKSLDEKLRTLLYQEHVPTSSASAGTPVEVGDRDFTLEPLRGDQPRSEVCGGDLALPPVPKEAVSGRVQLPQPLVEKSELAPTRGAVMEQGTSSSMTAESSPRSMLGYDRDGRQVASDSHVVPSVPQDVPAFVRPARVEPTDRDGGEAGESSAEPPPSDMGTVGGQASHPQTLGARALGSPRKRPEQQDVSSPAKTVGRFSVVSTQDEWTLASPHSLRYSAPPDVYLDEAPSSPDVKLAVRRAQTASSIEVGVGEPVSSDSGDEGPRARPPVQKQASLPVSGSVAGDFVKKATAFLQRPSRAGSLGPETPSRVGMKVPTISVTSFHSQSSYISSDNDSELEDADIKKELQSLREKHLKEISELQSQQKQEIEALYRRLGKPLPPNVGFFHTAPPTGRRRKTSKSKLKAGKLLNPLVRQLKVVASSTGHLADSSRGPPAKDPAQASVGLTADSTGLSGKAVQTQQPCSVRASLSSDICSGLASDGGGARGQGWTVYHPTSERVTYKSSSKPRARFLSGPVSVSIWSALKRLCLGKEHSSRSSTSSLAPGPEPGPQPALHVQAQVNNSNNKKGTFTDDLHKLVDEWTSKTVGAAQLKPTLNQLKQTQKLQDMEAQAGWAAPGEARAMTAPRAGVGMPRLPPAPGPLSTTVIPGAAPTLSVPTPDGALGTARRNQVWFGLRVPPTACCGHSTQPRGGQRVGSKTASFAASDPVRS
T1 sequence (Q5S007 whole entry): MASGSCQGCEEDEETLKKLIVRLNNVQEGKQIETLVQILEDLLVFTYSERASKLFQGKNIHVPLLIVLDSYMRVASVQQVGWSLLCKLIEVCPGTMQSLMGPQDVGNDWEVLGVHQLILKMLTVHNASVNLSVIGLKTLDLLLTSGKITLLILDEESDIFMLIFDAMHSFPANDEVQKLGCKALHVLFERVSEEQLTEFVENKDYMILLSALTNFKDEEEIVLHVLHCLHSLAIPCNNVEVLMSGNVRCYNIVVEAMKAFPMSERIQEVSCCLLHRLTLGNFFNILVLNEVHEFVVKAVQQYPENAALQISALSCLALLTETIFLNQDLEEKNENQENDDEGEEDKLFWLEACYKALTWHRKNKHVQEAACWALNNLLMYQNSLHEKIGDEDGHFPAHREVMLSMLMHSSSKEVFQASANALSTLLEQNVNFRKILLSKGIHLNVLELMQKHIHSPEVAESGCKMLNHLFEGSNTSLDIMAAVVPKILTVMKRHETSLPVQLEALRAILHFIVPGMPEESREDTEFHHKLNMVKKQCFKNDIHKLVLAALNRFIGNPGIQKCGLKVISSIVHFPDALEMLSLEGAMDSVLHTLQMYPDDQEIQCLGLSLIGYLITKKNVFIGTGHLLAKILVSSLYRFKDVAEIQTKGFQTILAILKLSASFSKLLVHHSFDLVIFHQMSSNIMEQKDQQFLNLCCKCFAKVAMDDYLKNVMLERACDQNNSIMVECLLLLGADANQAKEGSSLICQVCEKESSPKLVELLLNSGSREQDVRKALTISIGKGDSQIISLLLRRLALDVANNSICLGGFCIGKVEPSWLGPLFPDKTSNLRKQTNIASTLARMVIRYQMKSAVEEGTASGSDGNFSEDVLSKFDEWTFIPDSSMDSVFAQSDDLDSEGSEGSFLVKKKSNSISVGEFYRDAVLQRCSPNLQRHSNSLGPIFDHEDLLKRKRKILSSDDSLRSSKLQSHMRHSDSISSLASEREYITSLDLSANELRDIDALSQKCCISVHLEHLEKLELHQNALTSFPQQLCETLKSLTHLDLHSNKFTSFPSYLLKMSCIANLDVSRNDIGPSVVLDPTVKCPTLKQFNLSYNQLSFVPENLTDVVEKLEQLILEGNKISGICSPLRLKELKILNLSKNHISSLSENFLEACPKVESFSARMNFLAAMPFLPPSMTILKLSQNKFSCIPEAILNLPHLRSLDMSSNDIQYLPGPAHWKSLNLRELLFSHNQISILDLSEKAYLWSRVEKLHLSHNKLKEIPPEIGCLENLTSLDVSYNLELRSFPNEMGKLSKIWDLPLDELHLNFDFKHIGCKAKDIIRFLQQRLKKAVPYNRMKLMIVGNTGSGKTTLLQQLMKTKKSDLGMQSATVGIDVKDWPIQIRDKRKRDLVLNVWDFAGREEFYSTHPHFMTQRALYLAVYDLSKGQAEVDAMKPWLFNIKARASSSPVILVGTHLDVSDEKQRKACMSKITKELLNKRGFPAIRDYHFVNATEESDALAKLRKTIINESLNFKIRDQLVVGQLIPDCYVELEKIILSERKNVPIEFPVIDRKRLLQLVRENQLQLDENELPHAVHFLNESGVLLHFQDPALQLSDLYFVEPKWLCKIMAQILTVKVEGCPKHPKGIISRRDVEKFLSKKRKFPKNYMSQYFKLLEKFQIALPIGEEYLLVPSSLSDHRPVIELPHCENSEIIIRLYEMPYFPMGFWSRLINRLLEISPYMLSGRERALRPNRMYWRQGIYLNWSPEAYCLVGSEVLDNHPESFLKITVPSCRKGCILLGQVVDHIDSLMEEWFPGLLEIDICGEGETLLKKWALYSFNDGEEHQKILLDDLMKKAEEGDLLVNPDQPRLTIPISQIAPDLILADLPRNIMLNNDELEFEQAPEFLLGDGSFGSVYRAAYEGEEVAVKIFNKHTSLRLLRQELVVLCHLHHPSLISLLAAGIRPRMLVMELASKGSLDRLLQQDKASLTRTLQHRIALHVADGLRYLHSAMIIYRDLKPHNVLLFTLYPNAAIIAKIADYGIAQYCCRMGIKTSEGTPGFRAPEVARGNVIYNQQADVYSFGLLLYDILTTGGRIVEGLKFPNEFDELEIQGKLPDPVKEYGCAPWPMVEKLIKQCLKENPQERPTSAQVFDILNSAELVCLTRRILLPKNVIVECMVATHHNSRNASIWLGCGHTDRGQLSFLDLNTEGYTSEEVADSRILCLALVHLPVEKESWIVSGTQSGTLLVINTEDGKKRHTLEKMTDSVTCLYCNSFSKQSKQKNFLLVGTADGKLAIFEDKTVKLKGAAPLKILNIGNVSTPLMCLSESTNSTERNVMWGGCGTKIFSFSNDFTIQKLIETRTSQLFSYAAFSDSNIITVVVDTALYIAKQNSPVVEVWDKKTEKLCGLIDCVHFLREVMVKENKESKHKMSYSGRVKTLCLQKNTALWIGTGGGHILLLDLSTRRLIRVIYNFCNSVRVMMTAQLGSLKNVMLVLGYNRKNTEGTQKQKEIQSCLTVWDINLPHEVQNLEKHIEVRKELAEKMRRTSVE

Turning to `CN1C(=O)[C@@H](N2CCc3c(nn(Cc4ccccc4)c3C(N)=O)C2=O)COc2cc(Cl)ccc21` [Compound 10, (S)-2-benzyl-6-(8-chloro-5-methyl-4-oxo-2,3,4,5-tetrahydrobenzo[b][1,4]oxazepin-3-yl)-7-oxo-4,5,6,7-tetrahydro-2H-pyrazolo[3,4-c]pyridine-3-carboxamide], the remaining binding at 0.1 µM in assay [1] (LRRK2 (Entrez LRRK2), 100 nM, read-out: Percent Control) stood at 84%; in assay [11] (WNK2 (Entrez WNK2), 100 nM, read-out: Percent Control) it was 100%; in assay [18] (RIPK1 (Entrez RIPK1), 100 nM, read-out: Percent Control), 55%. For the same compound, the remaining binding at 1 µM turned out to be 62% in assay [1] (LRRK2, 1 μM, read-out: POC (Top Hits @ 1 μM)); 62% in assay [1] (LRRK2, 1000 nM, read-out: Percent Control); 49% in assay [11] (WNK2, 1 μM, read-out: POC (Top Hits @ 1 μM)); 49% in assay [11] (WNK2, 1000 nM, read-out: Percent Control); 23% in assay [18] (RIPK1, 1 μM, read-out: POC (Top Hits @ 1 μM)); 23% in assay [18] (RIPK1, 1000 nM, read-out: Percent Control). In addition, the remaining activity at 1 µM in assay [2] worked out at 92%; in assay [3], 78%; in [5], 96%; in assay [6] it was 88%; in assay [7] it was 92%; in assay [8], 97%. In addition, the remaining activity at 1 µM in assay [12] was determined as 94%; in [13], 82%; in assay [14], 83%; in [16], 86%. Moreover, the “Percent Control” value in assay [4] came to 100%. In addition, the EC50 in assay [9] and in [10] was above 50 µM each time. The receptor occupancy at 1 µM in assay [15] came to 2.27%. Moreover, the remaining activity at 0.1 µM in [17] was 100%.
